Experimental findings from patent US8975406B2, “Compound useful for the treatment of degenerative and inflammatory diseases” (Galapagos N.V., priority 2011, dated 2015) are described below.

One experiment addresses T1, Recombinant human JAK2 (Homo sapiens, UniProt O60674).
T1 construct: catalytic domain (amino acids 808-1132; catalog number PV4210); GST; purchased Invitrogen PV4210
Briefly: JAK2 Ulight-JAK1 peptide assay. As to conditions: Ulight-JAK1(tyr1023) peptide, 7.5 μM ATP. The experiment is classed as biochemical. On the procedure:
Recombinant human JAK2 (catalytic domain, amino acids […]; catalog number PV4210) was purchased from Invitrogen. 0.0125 mU of JAK2 was incubated with 25 nM Ulight-JAK1(tyr1023) peptide (Perkin Elmer catalog number TRF0121) in kinase reaction buffer (25 mM HEPES pH7.0, 0.01% Triton X-100, 7.5 mM MgCl2, 2 mM DTT, 7.5 μM ATP) with or without 4 μL containing test compound or vehicle (DMSO, 1% final concentration), in a total volume of 20 μL, in a white 384 Opti plate (Perkin Elmer, catalog number 6007290). After 60 min at room temperature, reactions were stopped by adding 20 μL/well of detection mixture (1× detection buffer (Perkin Elmer, catalog number CR97-100C), 0.5 nM Europium-anti-phosphotyrosine (PT66) (Perkin Elmer, catalog number AD0068), 10 mM EDTA). Readout is performed using the Envision with excitation at 320 nm and measuring emission at 615 nm (Perkin Elmer). Kinase activity was calculated by subtracting relative fluorescence units (RFU) obtained in the presence of a positive control inhibitor (10 μM staurosporine) from RFU obtained in the presence of vehicle. The ability of a test compound to inhibit this activity was determined as: Percentage inhibition=((RFU determined for sample with test compound present−RFU determined for sample with positive control inhibitor)divided by(RFU determined in the presence of vehicle−RFU determined for sample with positive control inhibitor))*100.
Dose dilution series were prepared for each compound enabling the testing of dose-response effects in the JAK2 assay and the calculation of the IC50 for the compound. Each compound is routinely tested at concentration of 20 μM followed by a ⅕ serial dilution, 10 points in a final concentration of 1% DMSO. When potency of compound series increases, more dilutions are prepared and/or the top concentration are lowered (e.g. 5 μM, 1 μM). The data are expressed as the average IC50 from the assays±standard error of the mean.

The target in experiment [1] is T2, Recombinant human TYK2 catalytic domain (Homo sapiens, UniProt P29597).
T2 construct: catalytic domain (amino acids 871-1187; catalog number 08-147); GST; purchased Carna Biosciences 08-147
T2 sequence (P29597 871-1187): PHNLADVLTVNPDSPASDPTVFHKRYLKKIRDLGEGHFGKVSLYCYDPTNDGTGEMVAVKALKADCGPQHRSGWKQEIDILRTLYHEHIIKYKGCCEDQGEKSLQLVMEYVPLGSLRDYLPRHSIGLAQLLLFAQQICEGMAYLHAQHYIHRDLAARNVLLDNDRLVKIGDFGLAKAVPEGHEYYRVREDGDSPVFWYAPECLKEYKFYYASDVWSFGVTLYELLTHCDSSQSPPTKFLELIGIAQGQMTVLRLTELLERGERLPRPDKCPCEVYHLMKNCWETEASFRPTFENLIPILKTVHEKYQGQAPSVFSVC
Briefly: TYK2 inhibition assay. The experiment is classed as biochemical. As to conditions: polyGT substrate, 33P-gamma-ATP filter assay, 0.1 μM ATP. On the procedure:
Recombinant human TYK2 catalytic domain (amino acids 871-1187; catalog number 08-147) was purchased from Carna biosciences. 4 ng of TYK2 was incubated with 12.5 μg polyGT substrate (Sigma catalog number P0275) in kinase reaction buffer (25 mM Hepes pH 7.2, 50 mM NaCl, 0.5 mM EDTA, 1 mM DTT, 5 mM MnCl2, 10 mM MgCl2, 0.1% Brij-35, 0.1 μM non-radioactive ATP, 0.125 μCi ^33P-gamma-ATP (Perkin Elmer, catalog number NEG602K001MC) final concentrations) with or without 5 μL containing test compound or vehicle (DMSO, 1% final concentration), in a total volume of 25 μL, in a polypropylene 96-well plate (Greiner, V-bottom). After 90 min at 30° C., reactions were stopped by adding 25 μL/well of 150 mM phosphoric acid. All of the terminated kinase reaction was transferred to prewashed (75 mM phosphoric acid) 96 well filter plates (Perkin Elmer catalog number 6005177) using a cell harvester (Perkin Elmer). Plates were washed 6 times with 300 μL per well of a 75 mM phosphoric acid solution and the bottom of the plates was sealed. 40 μL/well of Microscint-20 was added, the top of the plates was sealed and readout was performed using the Topcount (Perkin Elmer). Kinase activity was calculated by subtracting counts per min (cpm) obtained in the presence of a positive control inhibitor (10 μM staurosporine) from cpm obtained in the presence of vehicle. The ability of a test compound to inhibit this activity was determined as: Percentage inhibition=((cpm determined for sample with test compound present−cpm determined for sample with positive control inhibitor)divided by(cpm determined in the presence of vehicle−cpm determined for sample with positive control inhibitor))*100.
Dose dilution series were prepared for the compounds enabling the testing of dose-response effects in the TYK2 assay and the calculation of the IC50 for each compound. Each compound was routinely tested at concentration of 20 μM followed by a ⅓ serial dilution, 8 points (20 μM-6.67 μM-2.22 μM-740 nM-247 nM-82 nM-27 nM-9 nM) in a final concentration of 1% DMSO. When potency of compound series increased, more dilutions were prepared and/or the top concentration was lowered (e.g. 5 μM, 1 μM).

Where only a bound is given, the exact number is not on record here.

T1 sequence (O60674 808-1132): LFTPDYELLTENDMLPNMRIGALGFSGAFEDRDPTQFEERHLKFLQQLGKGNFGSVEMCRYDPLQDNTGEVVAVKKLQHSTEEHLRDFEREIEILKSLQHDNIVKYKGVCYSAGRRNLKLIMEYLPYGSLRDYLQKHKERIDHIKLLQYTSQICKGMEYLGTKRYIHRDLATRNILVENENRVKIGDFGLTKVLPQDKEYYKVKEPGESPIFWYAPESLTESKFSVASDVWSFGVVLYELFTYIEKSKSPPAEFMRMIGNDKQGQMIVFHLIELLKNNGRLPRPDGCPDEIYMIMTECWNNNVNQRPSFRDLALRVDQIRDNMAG

For the molecule `CC(=O)Nc1cc2c(-c3ccc(C(C)N4CCN(S(C)(=O)=O)CC4)cc3)cccn2n1` (stereo not shown) [Compound 45, N-(4-(4-(1-(4-(methylsulfonyl)piperazin-1-yl)ethyl)phenyl)pyrazolo[1,5-a]pyridin-2-yl)acetamide], the half-maximal inhibitory concentration (IC50) (on Recombinant human JAK2; in experiment [1]) was 0.01 to 100 nM in each case.

As to `CC(=O)Nc1cc2c(-c3ccc(CC(=O)N4COCC4(C)C)cc3)cccn2n1` [Compound 38, N-(4-(4-(2-(4,4-dimethyloxazolidin-3-yl)-2-oxoethyl)phenyl)pyrazolo[1,5-a]pyridin-2-yl)acetamide], the 50% inhibitory concentration (IC50) (in general, the concentration that gives 50% inhibition) was in the range of 0.01 to 100 nM at Recombinant human JAK2 and 101 to 500 nM in experiment [1].

On to `O=C(Nc1cc2c(-c3ccc(OCc4ccccc4)cc3)cccn2n1)C1CC1` [Compound 2, N-(4-(4-(benzyloxy)phenyl)pyrazolo[1,5-a]pyridin-2-yl)cyclopropanecarboxamide], for which the IC50 (at Recombinant human JAK2; in experiment [1]) was 101 to 500 nM each time.

Turning to `CC(=O)Nc1cc2c(-c3ccc(CC(=O)N4CC(F)(F)C4)cc3)cccn2n1` [Compound 34, N-(4-(4-(2-(3,3-difluoroazetidin-1-yl)-2-oxoethyl)phenyl)pyrazolo[1,5-a]pyridin-2-yl)acetamide], the IC50 (on Recombinant human JAK2; in experiment [1]) was 0.01 to 100 nM in each case.

Take `CC(=O)Nc1cc2c(-c3ccc(CN4CCN(S(C)(=O)=O)CC4)cc3)cccn2n1` [Compound 25, N-(4-(4-((4-(methylsulfonyl)piperazin-1-yl)methyl)phenyl)pyrazolo[1,5-a]pyridin-2-yl)acetamide]: the 50% inhibitory concentration (IC50) was in the range of 0.01 to 100 nM on Recombinant human JAK2 and 101 to 500 nM in experiment [1].

Take `COc1ccc(-c2cccn3nc(NC(=O)C4CC4)cc23)cc1` [Compound 1, N-(4-(4-methoxyphenyl)pyrazolo[1,5-a]pyridin-2-yl)cyclopropanecarboxamide]: the IC50 (on Recombinant human JAK2; in experiment [1]) was 0.01 to 100 nM each time.

For the molecule `CC(=O)Nc1cc2c(-c3ccc(CN4CCC(S(C)(=O)=O)CC4)c(F)c3)cccn2n1` [Compound 29, N-(4-(3-fluoro-4((4-(methylsulfonyl)piperidin-1-yl)methyl)phenyl)pyrazolo[1,5-a]pyridin-2-yl)acetamide], the IC50 (at Recombinant human JAK2; in experiment [1]) was 0.01 to 100 nM throughout.

For the molecule `CC(=O)Nc1cc2c(-c3ccc(CN4CCN(S(C)(=O)=O)C[C@H]4C)cc3)cccn2n1` [Compound 24, (R)-N-(4-(4-((2-methyl-4-(methylsulfonyl)piperazin-1-yl)methyl)phenyl)pyrazolo[1,5-a]pyridin-2-yl)acetamide], the IC50 (at Recombinant human JAK2; in experiment [1]) was 501 to 1000 nM throughout.

Consider `CS(=O)(=O)N1CC[C@@H](Oc2ccc(-c3cccn4nc(NC(=O)C5CC5)cc34)cc2)C1` [Compound 49, (R)-N-(4-(4-(1-(methylsulfonyl)pyrrolidin-3-yloxy)phenyl)pyrazolo[1,5-a]pyridin-2-yl)cyclopropanecarboxamide], for which the IC50 at Recombinant human JAK2 was more than 1000 nM; in experiment [1], 0.01 to 100 nM.

For the molecule `C[C@H](c1ccc(-c2cccn3nc(NC(=O)C4CC4)cc23)cc1)N1CCN(S(C)(=O)=O)CC1` [Compound 46, (R)-N-(4-(4-(1-(4-(methylsulfonyl)piperazin-1-yl)ethyl)phenyl)pyrazolo[1,5-a]pyridin-2-yl)cyclopropanecarboxamide], the IC50 (at Recombinant human JAK2; in experiment [1]) was 0.01 to 100 nM throughout.

Turning to `O=C(NCCOc1ccccc1)c1ccc(-c2cccn3nc(NC(=O)C4CC4)cc23)cc1` [Compound 6, 4-(2-(cyclopropanecarboxamido)pyrazolo[1,5-a]pyridin-4-yl)-N-(2-phenoxyethyl)benzamide], the IC50 on Recombinant human JAK2 fell in the range of 0.01 to 100 nM; in experiment [1], 101 to 500 nM.

Regarding `CS(=O)(=O)C1CCN(Cc2ccc(-c3cccn4nc(NC(=O)C5CC5)cc34)cc2)CC1` [Compound 17, N-(4-(4-((4-(methylsulfonyl)piperidin-1-yl)methyl)phenyl)pyrazolo[1,5-a]pyridin-2-yl)cyclopropanecarboxamide], the IC50 (on Recombinant human JAK2; in experiment [1]) was 0.01 to 100 nM in each case.

As for `CC(=O)Nc1cc2c(-c3ccc(CN4CCN(CC(F)(F)F)CC4)c(F)c3)cccn2n1` [Compound 28, N-(4-(3-fluoro-4-((4-(2,2,2-trifluoroethyl)piperazin-1-yl)methyl)phenyl)pyrazolo[1,5-a]pyridin-2-yl)acetamide], the IC50 was 0.01 to 100 nM on Recombinant human JAK2 and 101 to 500 nM in experiment [1].

Take `O=C(Nc1nn2cccc(-c3ccc(CN4CCS(=O)(=O)CC4)cc3)c2c1Br)C1CC1` [Compound 12, Cyclopropanecarboxylic acid {4-[4-(1,1-dioxo-thiomorpholin-4-ylmethyl)-phenyl]-3-bromo-pyrazolo[1,5-a]pyridin-2-yl}-amide]: the IC50 (on Recombinant human JAK2; in experiment [1]) was 0.01 to 100 nM in each case.

Turning to `CC(=O)Nc1cc2c(-c3ccc(CN4CCN(S(C)(=O)=O)CC4)c(F)c3)cccn2n1` [Compound 21], the IC50 at Recombinant human JAK2 was in the range of 0.01 to 100 nM; in experiment [1] it was 101 to 500 nM.

As for `C[C@@H](c1ccc(-c2cccn3nc(NC(=O)C4CC4)cc23)cc1)N1CCN(S(C)(=O)=O)CC1` [Compound 47, (S)-N-(4-(4-(1-(4-(methylsulfonyl)piperazin-1-yl)ethyl)phenyl)pyrazolo[1,5-a]pyridin-2-yl)cyclopropanecarboxamide], the IC50 (at Recombinant human JAK2; in experiment [1]) was 0.01 to 100 nM each time.

Turning to `CS(=O)(=O)C1CCN(Cc2ccc(-c3cccn4nc(NC(=O)C5CC5)c(Cl)c34)cc2)CC1` [Compound 19, N-(3-chloro-4-(4-((4-(methylsulfonyl)piperidin-1-yl)methyl)phenyl)pyrazolo[1,5-a]pyridin-2-yl)cyclopropanecarboxamide], the IC50 at Recombinant human JAK2 is 501 to 1000 nM; in experiment [1] it was 101 to 500 nM.

`C[C@@H]1CN(S(C)(=O)=O)CCN1Cc1ccc(-c2cccn3nc(NC(=O)C4CC4)cc23)cc1` [Compound 44, (R)-N-(4-(4-((2-methyl-4-(methylsulfonyl)piperazin-1-yl)methyl)phenyl)pyrazolo[1,5-a]pyridin-2-yl)cyclopropanecarboxamide]: the IC50 (on Recombinant human JAK2; in experiment [1]) was 0.01 to 100 nM throughout.

As for `COc1ccc(-c2cccn3nc(NC(=O)C4CC4)c(-c4ccccc4)c23)cc1` [Compound 7, N-(4-(4-methoxyphenyl)-3-phenylpyrazolo[1,5-a]pyridin-2-yl)cyclopropanecarboxamide], the IC50 (on Recombinant human JAK2; in experiment [1]) was more than 1000 nM throughout.

Turning to `CC(c1ccc(-c2cccn3nc(NC(=O)C4CC4)cc23)cc1)N1CCN(S(C)(=O)=O)CC1` (stereo not shown) [Compound 43, N-(4-(4-(1-(4-(methylsulfonyl)piperazin-1-yl)ethyl)phenyl)pyrazolo[1,5-a]pyridin-2-yl)cyclopropanecarboxamide], the concentration for half-maximal inhibition (IC50) (at Recombinant human JAK2; in experiment [1]) was 0.01 to 100 nM throughout.
